Data taken from patent US20210386826A1, “Combination for Treating Cancer” (Pfizer Inc., priority 2018, published 2021).

Biological target: IL-2Rαβ (Homo sapiens, UniProt P01589+P14784)
From the text: The term “CD-122-biased cytokine agonist” (also referred to as an interleukin-2 receptor beta (ILRβ), selective agonist) as used herein, refers to an agonist that has a greater affinity for binding to IL-2Rβ than to IL-2Rαβ.

Sequence of IL-2Rαβ (P01589 22-240 limits assumed): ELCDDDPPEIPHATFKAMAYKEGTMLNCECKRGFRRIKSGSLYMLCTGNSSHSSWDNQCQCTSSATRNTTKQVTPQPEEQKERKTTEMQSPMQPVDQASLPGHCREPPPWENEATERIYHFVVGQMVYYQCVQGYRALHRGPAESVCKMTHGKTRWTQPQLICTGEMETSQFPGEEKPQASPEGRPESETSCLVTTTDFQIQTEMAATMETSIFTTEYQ
Sequence of IL-2Rαβ (P14784 27-240 limits assumed): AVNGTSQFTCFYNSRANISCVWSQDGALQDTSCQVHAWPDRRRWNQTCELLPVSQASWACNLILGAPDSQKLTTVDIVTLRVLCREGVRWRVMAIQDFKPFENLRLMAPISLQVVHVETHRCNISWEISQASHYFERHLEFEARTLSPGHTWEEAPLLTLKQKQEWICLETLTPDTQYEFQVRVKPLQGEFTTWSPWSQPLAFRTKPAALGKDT

decrease in affinity to IL-2Rαβ relative to IL-2: ~60 fold
Substance: (2,7-(bis-methoxyPEG10kD-carboxyamide)(9H-fluorene-9-yl)methyl N-carbamate)6avg interleukin-2 [bempegaldesleukin]
